Experimental data reported in paper PMC12892976, “Alkylation-based optimization of antifungal FPPS inhibitors yields a potent, broad-spectrum lipophilic zoledronate derivative” (mBio, 2025).

Tests used:
Rhizopus oryzae = experiment: MIC broth microdilution (CLSI); format: cell-based; conditions: Rhizopus oryzae 04-14-364-1703
Method: (§1) Antifungal susceptibility was determined by broth microdilution according to the CLSI guidelines described in M27-Ed4 ([16]).

Scedosporium apiospermum [1] = experiment: checkerboard drug interaction (FICI, MICc); format: cell-based;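 note: simplified diagonal checkerboard screen of antifungal plus FPPS inhibitor pairs, with FICI computed under the Loewe additivity model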
Method: (§2) Drug interactions between antifungals and FPPS inhibitors were investigated using a simplified checkerboard diagonal screening method ([45]). […] FICIs were determined according to the Loewe additivity model ([17]).

Mucor circinelloides [2] = experiment: checkerboard drug interaction (FICI, MICc); format: cell-based;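 note: simplified diagonal checkerboard screen pairing antifungals with FPPS inhibitors, FICI calculated under the Loewe additivity model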
Method: as §2

Aspergillus parafelis [3] = experiment: MIC broth microdilution (CLSI); format: cell-based; conditions: Aspergillus parafelis DTO 341-F2
Method: as §1

Nannizzia gypsea = experiment: checkerboard drug interaction (FICI, MICc);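 note: simplified diagonal checkerboard screen pairing antifungals with FPPS inhibitors, FICI derived using the Loewe additivity model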
Method: as §2

[4] = test system: Aspergillus frankstonensis; experiment: checkerboard drug interaction (FICI, MICc);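 note: simplified diagonal checkerboard screen pairing antifungals with FPPS inhibitors, FICI calculated using the Loewe additivity model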
Method: as §2

Fusarium solani = experiment: checkerboard drug interaction (FICI, MICc); format: cell-based;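 note: simplified diagonal checkerboard screen pairing antifungals with FPPS inhibitors, FICI derived under the Loewe additivity model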
Method: as §2

Aspergillus niger [5] = experiment: MIC broth microdilution (CLSI); format: cell-based; conditions: Aspergillus niger 111
Method: as §1

Lomentospora prolificans [6] = experiment: MIC broth microdilution (CLSI); format: cell-based; conditions: Lomentospora prolificans 80-16-101-2445
Method: as §1

Candida tropicalis = experiment: MIC broth microdilution (CLSI); format: cell-based; conditions: Candida tropicalis M230640
Method: as §1

Cryptococcus gattii [7] = experiment: MIC broth microdilution (CLSI); format: cell-based; conditions: Cryptococcus gattii PNG27
Method: as §1

Cryptococcus gattii [8] = experiment: checkerboard drug interaction (FICI, MICc); format: cell-based;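 note: simplified diagonal checkerboard screen pairing antifungals with FPPS inhibitors, FICI computed under the Loewe additivity model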
Method: as §2

Lomentospora prolificans [9] = experiment: checkerboard drug interaction (FICI, MICc);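 note: simplified diagonal checkerboard screen pairing antifungals with FPPS inhibitors, FICI calculated under the Loewe additivity model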
Method: as §2

Aspergillus parafelis [10] = experiment: checkerboard drug interaction (FICI, MICc);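 note: simplified diagonal checkerboard screen pairing antifungals with FPPS inhibitors, FICI calculated under the Loewe additivity model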
Method: as §2

Nannizzia nana [11] = experiment: MIC broth microdilution (CLSI); format: cell-based; conditions: Nannizzia nana R-133
Method: as §1

[12] = test system: Trichophyton interdigitale; experiment: checkerboard drug interaction (FICI, MICc);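 note: simplified diagonal checkerboard screen pairing antifungals with FPPS inhibitors, FICI values calculated under the Loewe additivity model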
Method: as §2

[13] = test system: Aspergillus frankstonensis; experiment: MIC broth microdilution (CLSI); format: cell-based; conditions: Aspergillus frankstonensis DTO 341-F3
Method: as §1

Microsporum canis = experiment: checkerboard drug interaction (FICI, MICc); format: cell-based;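 note: simplified diagonal checkerboard screen pairing antifungals with FPPS inhibitors, FICI calculated under the Loewe additivity model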
Method: as §2

Trichophyton tonsurans = experiment: checkerboard drug interaction (FICI, MICc); format: cell-based;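 note: simplified diagonal checkerboard screen combining antifungals with FPPS inhibitors, with FICI calculated under the Loewe additivity model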
Method: as §2

Aspergillus lentulus = experiment: checkerboard drug interaction (FICI, MICc); format: cell-based;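 note: simplified diagonal checkerboard screen pairing antifungals with FPPS inhibitors, with the interaction index calculated under the Loewe additivity model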
Method: as §2

Scedosporium apiospermum [14] = experiment: MIC broth microdilution (CLSI); format: cell-based; conditions: Scedosporium apiospermum 04-16-022-2268
Method: as §1

Cryptococcus tetragattii = experiment: checkerboard drug interaction (FICI, MICc); format: cell-based;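 note: simplified diagonal checkerboard screen pairing antifungals with FPPS inhibitors, with FICI calculated under the Loewe additivity model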
Method: as §2

Aspergillus niger [15] = experiment: checkerboard drug interaction (FICI, MICc); format: cell-based
Method: as §2

Candida auris [16] = experiment: MIC broth microdilution (CLSI); format: cell-based; conditions: Candida auris CDC-0384
Method: as §1

Trichophyton soudanense = experiment: checkerboard drug interaction (FICI, MICc); format: cell-based;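 note: simplified diagonal checkerboard screen pairing antifungals with FPPS inhibitors, FICI computed under the Loewe additivity model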
Method: as §2

Candida parapsilosis [17] = experiment: checkerboard drug interaction (FICI, MICc); format: cell-based;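 note: simplified diagonal checkerboard screen pairing antifungals with FPPS inhibitors, with FICI computed under the Loewe additivity model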
Method: as §2

Mucor circinelloides [18] = experiment: MIC broth microdilution (CLSI); format: cell-based; conditions: Mucor circinelloides 80-14-240-5007
Method: as §1

Aspergillus udagawae = experiment: MIC broth microdilution (CLSI); format: cell-based; conditions: Aspergillus udagawae 8G81
Method: as §1

Epidermophyton floccosum = experiment: checkerboard drug interaction (FICI, MICc)
Method: as §2

Candida auris [19] = experiment: checkerboard drug interaction (FICI, MICc); format: cell-based;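 note: simplified diagonal checkerboard screen pairing antifungals with FPPS inhibitors, with FICI computed under the Loewe additivity model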
Method: as §2

Fusarium oxysporum = experiment: checkerboard drug interaction (FICI, MICc); format: cell-based
Method: as §2

Nannizzia nana [20] = experiment: checkerboard drug interaction (FICI, MICc); format: cell-based
Method: as §2

Candida parapsilosis [21] = experiment: MIC broth microdilution (CLSI); format: cell-based; conditions: Candida parapsilosis ATCC 22018
Method: Antifungal susceptibility was determined by broth microdilution according to the CLSI guidelines described in M27-Ed4 ([16]). […] MFC was determined by back-plating drug-treated cultures from MIC broths onto SDA plates. The MFC was defined as the lowest concentration from which no colonies could be cultured.

Candida dubliniensis = experiment: MIC broth microdilution (CLSI); format: cell-based; conditions: Candida dubliniensis M230642
Method: as §1

Nc1nc(=O)[nH]cc1F [5FC, 5-flucytosine]
32 mg/L: MIC / MEC (Nannizzia nana [11])
512: antifungal MICc (Mucor circinelloides [2]; in combination with 10-ZOL) | antifungal MICc (Mucor circinelloides [2]; in combination with ZOL) | antifungal MICc (Nannizzia gypsea; in combination with 10-ZOL) | antifungal MICc (Fusarium solani; in combination with 10-ZOL) | antifungal MICc (Aspergillus parafelis [10]; in combination with 10-ZOL) | antifungal MICc (Microsporum canis; in combination with ZOL) | antifungal MICc (Aspergillus lentulus; in combination with 10-ZOL) | antifungal MICc (Aspergillus niger [15]; in combination with 10-ZOL) | antifungal MICc (Fusarium oxysporum; in combination with 10-ZOL) | antifungal MICc (Fusarium oxysporum; in combination with ZOL)
0.125: antifungal MICc (Cryptococcus gattii [8]; in combination with ZOL) | antifungal MICc (Candida parapsilosis [17]; in combination with 10-ZOL)
256: antifungal MICc (Scedosporium apiospermum [1]; in combination with 10-ZOL) | antifungal MICc (Scedosporium apiospermum [1]; in combination with ZOL) | antifungal MICc (Nannizzia gypsea; in combination with ZOL) | antifungal MICc ([4]; in combination with 10-ZOL) | antifungal MICc ([4]; in combination with ZOL) | antifungal MICc (Fusarium solani; in combination with ZOL) | antifungal MICc (Lomentospora prolificans [9]; in combination with 10-ZOL) | antifungal MICc (Lomentospora prolificans [9]; in combination with ZOL) | antifungal MICc (Microsporum canis; in combination with 10-ZOL) | antifungal MICc (Aspergillus lentulus; in combination with ZOL) | antifungal MICc (Aspergillus niger [15]; in combination with ZOL)
0.5 mg/L: MIC / MEC (Candida tropicalis) | MIC / MEC (Cryptococcus gattii [7]) | MIC / MEC (Candida parapsilosis [21])
1: antifungal MICc (Candida auris [19]; in combination with ZOL)
2 mg/L: MIC / MEC (Candida auris [16])
2: antifungal MICc (Candida auris [19]; in combination with 10-ZOL)
0.5: antifungal MICc (Cryptococcus tetragattii; in combination with 10-ZOL) | antifungal MICc (Cryptococcus tetragattii; in combination with ZOL)
64: antifungal MICc ([12]; in combination with 10-ZOL) | antifungal MICc (Trichophyton tonsurans; in combination with 10-ZOL) | antifungal MICc (Trichophyton tonsurans; in combination with ZOL) | antifungal MICc (Trichophyton soudanense; in combination with 10-ZOL) | antifungal MICc (Trichophyton soudanense; in combination with ZOL) | antifungal MICc (Nannizzia nana [20]; in combination with ZOL)
32: antifungal MICc (Epidermophyton floccosum; in combination with 10-ZOL) | antifungal MICc (Epidermophyton floccosum; in combination with ZOL) | antifungal MICc (Nannizzia nana [20]; in combination with 10-ZOL)
>64 mg/L: MIC / MEC (Rhizopus oryzae) | MIC / MEC (Aspergillus parafelis [3]) | MIC / MEC (Aspergillus niger [5]) | MIC / MEC (Lomentospora prolificans [6]) | MIC / MEC [13] | MIC / MEC (Scedosporium apiospermum [14]) | MIC / MEC (Mucor circinelloides [18]) | MIC / MEC (Aspergillus udagawae)
128: antifungal MICc (Aspergillus parafelis [10]; in combination with ZOL) | antifungal MICc ([12]; in combination with ZOL)
0.25 mg/L: MIC / MEC (Candida dubliniensis)
0.25: antifungal MICc (Cryptococcus gattii [8]; in combination with 10-ZOL) | antifungal MICc (Candida parapsilosis [17]; in combination with ZOL)
